Patent US20050197350A1, “Novel quinoline, tetrahydroquinazoline, and pyrimidine derivatives and methods of treatment related to the use thereof” (TAISHO PHARMACEUTICAL CO., LTD., priority 2003, published 2005)
Counter-ions that a name gives are not always drawn.

The compounds below were run against MCH receptor (Homo sapiens, UniProt Q99705) (assay: High throughput functional screening FLIPR/FDSS6000 (intracellular Ca2+ evoked by MCH)). Conditions: FLIPR/FDSS, antagonist activity vs 50 nM MCH; class by percent of control at 10^−7 M or IC50; table after the classification; read-out: class.
Type: cell-based
In short: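 For antagonist testing, compound-treated cells (30 min, 37 °C) were stimulated with 50 nM MCH and intracellular Ca2+ followed by Fluo4 fluorescence on FLIPR/FDSS6000. Receptor was a constitutively active, non-endogenous MCH receptor; dye loading 4 μM Fluo4-AM, 1 h, 37 °C.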

IC50	SMILES
< 50 nM	Cc1cc(N[C@H]2CC[C@@H](NC(=O)c3cccnc3Oc3ccc(F)cc3)CC2)nc2ccccc12 [Example 3090, 2-(4-Fluoro-phenoxy)-N-[cis-4-(4-methyl-quinolin-2-ylamino)-cyclohexyl]-nicotinamide hydrochloride]
< 50 nM	Cc1cc(N[C@H]2CC[C@@H](NC(=O)c3cccnc3Oc3ccc(F)c(F)c3)CC2)nc2ccccc12 [Example 3091, 2-(3,4-Difluoro-phenoxy)-N-[cis-4-(4-methyl-quinolin-2-ylamino)-cyclohexyl]-nicotinamide hydrochloride]
< 50 nM	Cc1ccc(Oc2ncccc2C(=O)N[C@H]2CC[C@@H](Nc3cc(C)c4ccccc4n3)CC2)cc1 [Example 3092, N-[cis-4-(4-Methyl-quinolin-2-ylamino)-cyclohexyl]-2-p-tolyloxy-nicotinamide hydrochloride]
< 50 nM	Cc1cc(N[C@H]2CC[C@@H](NC(=O)c3cccnc3Oc3ccc(Cl)cc3)CC2)nc2ccccc12 [Example 3093, 2-(4-Chloro-phenoxy)-N-[cis-4-(4-methyl-quinolin-2-ylamino)-cyclohexyl]-nicotinamide hydrochloride]
< 50 nM	Cc1cc(N[C@H]2CC[C@@H](NC(=O)c3cccnc3Oc3ccc(Br)cc3)CC2)nc2ccccc12 [Example 3094, 2-(4-Bromo-phenoxy)-N-[cis-4-(4-methyl-quinolin-2-ylamino)-cyclohexyl]-nicotinamide hydrochloride]
< 50 nM	COc1ccc(Oc2ncccc2C(=O)N[C@H]2CC[C@@H](Nc3cc(C)c4ccccc4n3)CC2)cc1 [Example 3095, 2-(4-Methoxy-phenoxy)-N-[cis-4-(4-methyl-quinolin-2-ylamino)-cyclohexyl]-nicotinamide hydrochloride]
< 50 nM	Cc1cc(N[C@H]2CC[C@@H](NC(=O)c3cccnc3Oc3ccc(F)c(Cl)c3)CC2)nc2ccccc12 [Example 3096, 2-(3-Chloro-4-fluoro-phenoxy)-N-[cis-4-(4-methyl-quinolin-2-ylamino)-cyclohexyl]-nicotinamide hydrochloride]
< 50 nM	Cc1cccc(Oc2ncccc2C(=O)N[C@H]2CC[C@@H](Nc3cc(C)c4ccccc4n3)CC2)c1 [Example 3097, N-[cis-4-(4-Methylquinolin-2-ylamino)-cyclohexyl]-2-m-tolyloxy-nicotinamide hydrochloride]
< 50 nM	COc1cccc(OCC(=O)N[C@H]2CC[C@@H](Nc3cc(C)c4ccccc4n3)CC2)c1 [Example 3098, 2-(3-Methoxy-phenoxy)-N-[cis-4-(4-methyl-quinolin-2-ylamino)-cyclohexyl]-acetamide hydrochloride]
< 50 nM	Cc1cc(N[C@H]2CC[C@@H](NC(=O)COc3cccc(Cl)c3)CC2)nc2ccccc12 [Example 3099, 2-(3-Chloro-phenoxy)-N-[cis-4-(4-methyl-quinolin-2-ylamino)-cyclohexyl]-acetamide hydrochloride]
< 50 nM	Cc1cc(N[C@H]2CC[C@@H](NC(=O)COc3ccc(F)c(Cl)c3)CC2)nc2ccccc12 [Example 3100, 2-(3-Chloro-4-fluoro-phenoxy)-N-[cis-4-(4-methyl-quinolin-2-ylamino)-cyclohexyl]-acetamide hydrochloride]
< 50 nM	Cc1cc(N[C@H]2CC[C@@H](NC(=O)COc3ccc(Cl)c(Cl)c3)CC2)nc2ccccc12 [Example 3101, 2-(3,4-Dichloro-phenoxy)-N-[cis-4-(4-methyl-quinolin-2-ylamino)-cyclohexyl]-acetamide hydrochloride]
50 to 200 nM	Cc1cc(N[C@H]2CC[C@@H](NC(=O)CNc3ccc(Cl)c(Cl)c3)CC2)nc2ccccc12 [Example 3103, 2-(3,4-Dichloro-phenylamino)-N-[cis-4-(4-methyl-quinolin-2-ylamino)-cyclohexyl]-acetamide dihydrochloride]
50 to 200 nM	Cc1cc(N[C@H]2CC[C@@H](CNC(=O)c3ccc(F)c(F)c3)CC2)nc2ccccc12 [Example 3104, 3,4-Difluoro-N-[cis-4-(4-methyl-quinolin-2-ylamino)-cyclohexylmethyl]-benzamide hydrochloride]
50 to 200 nM	Cc1cc(N[C@H]2CC[C@@H](CNC(=O)c3cccnc3Oc3ccccc3)CC2)nc2ccccc12 [Example 3105, N-[cis-4-(4-Methylquinolin-2-ylamino)-cyclohexylmethyl]-2-phenoxy-nicotinamide hydrochloride]
< 50 nM	Cc1cc(N[C@H]2CC[C@@H](CNC(=O)Nc3cccc(Cl)c3Cl)CC2)nc2ccccc12 [Example 3106, 1-(2,3-Dichloro-phenyl)-3-[cis-4-(4-methyl-quinolin-2-ylamino)-cyclohexylmethyl]-urea hydrochloride]
< 50 nM	CN(C)c1nc(N[C@H]2CC[C@@H](NC(=O)c3cccnc3Oc3ccccc3)CC2)nc2c1CCCC2 [Example 3107, N-[cis-4-(4-Dimethylamino-5,6,7,8-tetrahydro-quinazolin-2-ylamino)-cyclohexyl]-2-phenoxy-nicotinamide hydrochloride]

IC50	SMILES
< 50 nM	CN(C)c1nc(N[C@H]2CC[C@@H](NC(=O)c3ccc(F)c(Cl)c3)CC2)nc2c1CCCC2 [Example 3108, 3-Chloro-N-[cis-4-(4-dimethylamino-5,6,7,8-tetrahydro-quinazolin-2-ylamino)-cyclohexyl]-4-fluoro-benzamide hydrochloride]
< 50 nM	Cc1cc(C(=O)N[C@H]2CC[C@@H](Nc3nc4c(c(N(C)C)n3)CCCC4)CC2)ccc1F [Example 3109, N-[cis-4-(4-Dimethylamino-5,6,7,8-tetrahydro-quinazolin-2-ylamino)-cyclohexyl]-4-fluoro-3-methyl-benzamide hydrochloride]
< 50 nM	COc1cc(OC)cc(C(=O)N[C@H]2CC[C@@H](Nc3nc4c(c(N(C)C)n3)CCCC4)CC2)c1 [Example 3110, N-[cis-4-(4-Dimethylamino-5,6,7,8-tetrahydro-quinazolin-2-ylamino)-cyclohexyl]-3,5-dimethoxy-benzamide hydrochloride]
< 50 nM	CN(C)c1nc(N[C@H]2CC[C@@H](NC(=O)c3ccc4nonc4c3)CC2)nc2c1CCCC2 [Example 3111, Benzo[2,1,3]oxadiazole-5-carboxylic acid-[cis-4-(4-dimethylamino-5,6,7,8-tetrahydro-quinazolin-2-ylamino)-cyclohexyl]-amide hydrochloride]
< 50 nM	CN(C)c1nc(N[C@H]2CC[C@@H](NC(=O)c3cccc([N+](=O)[O-])c3)CC2)nc2c1CCCC2 [Example 3112, N-[cis-4-(4-Dimethylamino-5,6,7,8-tetrahydro-quinazolin-2-ylamino)-cyclohexyl]-3-nitro-benzamide hydrochloride]
> 200 nM	CN(C)c1nc(N[C@H]2CC[C@@H](CNC(=O)c3cccnc3Oc3ccccc3)CC2)nc2c1CCCC2 [Example 3113, N-[cis-4-(4-Dimethylamino-5,6,7,8-tetrahydro-quinazolin-2-ylamino)-cyclohexylmethyl]-2-phenoxy-nicotinamide hydrochloride]
< 50 nM	CN(C)c1cc(N[C@H]2CC[C@@H](NC(=O)c3cccnc3Oc3ccccc3)CC2)nc2ccccc12 [Example 3114, N-[cis-4-(4-Dimethylamino-quinolin-2-ylamino)-cyclohexyl]-2-phenoxy-nicotinamide hydrochloride]
< 50 nM	O=C(N[C@H]1CC[C@@H](Nc2cc(Cl)c3ccccc3n2)CC1)c1cccnc1Oc1ccccc1 [Example 3115, N-[cis-4-(4-Chloro-quinolin-2-ylamino)-cyclohexyl]-2-phenoxy-nicotinamide hydrochloride]
> 200 nM	COc1cc(N[C@H]2CC[C@@H](NC(=O)c3ccc(F)c(F)c3)CC2)nc2ccccc12 [Example 3116, 3,4-Difluoro-N-[cis-4-(4-methoxy-quinolin-2-ylamino)-cyclohexyl]-benzamide hydrochloride]
< 50 nM	O=C(N[C@H]1CC[C@@H](Nc2cc(Cl)c3ccccc3n2)CC1)c1ccc(F)c(F)c1 [Example 3117, N-[cis-4-(4-Chloro-quinolin-2-ylamino)-cyclohexyl]-3,4-difluoro-benzamide hydrochloride]
> 200 nM	CN(C)c1cc(N[C@H]2CC[C@@H](CNC(=O)c3cccnc3Oc3ccccc3)CC2)nc2ccccc12 [Example 3118, N-[cis-4-(4-Dimethylamino-quinolin-2-ylamino)-cyclohexylmethyl]-2-phenoxy-nicotinamide hydrochloride]
< 50 nM	Cc1cnc(N[C@H]2CC[C@@H](NC(=O)c3ccc(F)c(F)c3)CC2)nc1N(C)C [Example 3119, N-[cis-4-(4-Dimethylamino-5-methyl-pyrimidin-2-ylamino)-cyclohexyl]-3,4-difluoro-benzamide hydrochloride]
< 50 nM	Cc1cnc(N[C@H]2CC[C@@H](NC(=O)c3cccnc3Oc3ccccc3)CC2)nc1N(C)C [Example 3120, N-[cis-4-(4-Dimethylamino-5-methyl-pyrimidin-2-ylamino)-cyclohexyl]-2-phenoxy-nicotinamide hydrochloride]
< 50 nM	Cc1cccc(C(=O)N[C@H]2CC[C@@H](Nc3ncc(C)c(N(C)C)n3)CC2)c1 [Example 3121, N-[cis-4-(4-Dimethylamino-5-methyl-pyrimidin-2-ylamino)-cyclohexyl]-3-methyl-benzamide hydrochloride]
< 50 nM	COc1cccc(C(=O)N[C@H]2CC[C@@H](Nc3ncc(C)c(N(C)C)n3)CC2)c1 [Example 3122, N-[cis-4-(4-Dimethylamino-5-methyl-pyrimidin-2-ylamino)-cyclohexyl]-3-methoxy-benzamide hydrochloride]
< 50 nM	Cc1cnc(N[C@H]2CC[C@@H](NC(=O)c3cccnc3Oc3ccc(F)cc3)CC2)nc1N(C)C [Example 3123, N-[cis-4-(4-Dimethylamino-5-methyl-pyrimidin-2-ylamino)-cyclohexyl]-2-(4-fluoro-phenoxy)-nicotinamide hydrochloride]
